The assay concerns CEM cells HIV-1 protection, formazan growth assay. Description: NCI AIDS Antiviral Assay. To be noted: for IC50: measured here: growth of uninfected CEM cells. In short, it runs like this:
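Human CEM cells, uninfected and HIV-1-infected, received five drug concentrations, and growth was read by soluble formazan assay. Compounds giving at least 50% protection were retested; reproducible 100% protection defined confirmed active.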

The source made the active and inactive calls.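 Rule for the calls: active = compounds giving half or more protection of infected cells from virus-caused growth loss, again on retest; inactive = the rest.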 Where only a bound is given, the exact number is not on record here.

One may read the EC50 as the concentration needed to bring the measured effect to its halfway point. One may read the IC50 as the concentration that gives 50% inhibition. Low readings indicate inhibition by little substance, high ones a need for much substance.

Consider `O=S1(=O)OCCOS(=O)(=O)C1(Cl)Cl`, for which the EC50 was over 50.1 µM and the concentration for half-maximal inhibition (IC50) is over 50.1 µM.

With `O=c1oc2ccccc2c(O)c1C(c1ccc(OCc2ccccc2)cc1)c1c(O)c2ccccc2oc1=O`, the EC50 was over 200 µM and the IC50 amounted to 30.2 µM.

Consider `CC1CCC23COC(=O)C2=CCCC3C1(C)CC/C(=C/CO)CO` (stereo not given), for which the result was inactive.

On to `Brc1ccc(CCNCCN2CCCCC2)cc1`, for which the EC50 is over 102 µM and the IC50 stood at 29.5 µM. Regarding `C1=NCCNCCNCCN=Cc2ccccc2OCc2cccc(n2)COc2ccccc21`, the EC50 was over 50.1 µM and the IC50 was found to be 7.76 µM. For `Cc1ccc2c(c1C)C(=O)/C(=C/c1cccc(C)c1C(=O)O)C2`, the outcome was inactive. Consider `Cc1ccc(S(=O)(=O)C2CC2(Cl)Cl)cc1` (stereo not given), for which the outcome was inactive. Take `Brc1ccc2nc(-c3ccccc3)c3ccccc3c2c1`: the EC50 is over 200 µM and the IC50 is over 200 µM. Regarding `O=C1C=CC=CC2CC=C[C@@H](O)C12` (stereo not given in full), the EC50 is over 251 µM and the half-inhibitory concentration (IC50) amounted to 12 µM. Regarding `COC(=O)[C@@]1(C(C)CC(=O)O)CCCCC1=O` (stereo not given in full), the EC50 is over 1020 µM and the half-maximal inhibitory concentration (IC50) came out at 214 µM. On to `O=C1C=Cc2ccccc2/C1=C/c1nc(-c2ccccc2)oc1O`, for which the EC50 is over 100 µM and the IC50 was determined as 58.9 µM. As to `O=C1/C(=C/c2ccccc2)NC(=S)N1CN1CCOCC1`, the EC50 was over 200 µM and the IC50 stood at 72.4 µM. The corresponding values for `CCCCOC1CC2(c3ccc(OC)cc3)C(=O)c3ccccc3N2O1` (stereo not given) are over 112 µM and 24 µM. Take `CC1=CCP(C(F)(F)F)P(C(F)(F)F)C1` (stereo not given): the EC50 was over 251 µM and the IC50 was over 251 µM. Regarding `O=C(c1c2c(cc3c1CC1(Cc4cc5c(cc4C1)CCCC5)C3)CCCC2)C(Br)Br`, the EC50 was over 100 µM and the IC50 amounted to 4.9 µM. The matching figures for `CCC[CH2][Sn]1([CH2]CCC)[O]CC(COc2c(Cl)cc(Cl)cc2Cl)[O]1` (stereo not given): over 3.98 µM and 1.86 µM. The matching figures for `CCOC(=O)/C=C/c1ccc2c(c1)OC(CO)[C@H](c1ccc(O)c(OC)c1)O2` (stereo not given in full): over 339 µM and 77.6 µM. Take `COC1OC(CO)C(O)C1N` (stereo not given): the result was inactive. `CN(C)c1ccc(Cc2cc3c(O)ccc(O)c3cc(Cc3ccc(N(C)C)cc3)c2=O)cc1`: the EC50 was over 200 µM and the IC50 amounted to 3.16 µM. The corresponding values for `OC1(CN2CCCCC2)N=C(c2ccccc2)c2ccsc2-n2cccc21` (stereo not given) are over 200 µM and 117 µM.

Take `COc1ccc(/C=C/c2nc3ccccc3nc2/C=C/c2ccc(OC)c(OC)c2)cc1OC`: the EC50 was over 100 µM and the IC50 was over 100 µM. As for `CCC1(O)C(=O)Nc2ccc(OC)cc2C1=O` (stereo not given), the result was inactive. As for `COc1cc(C)c(/C=C/C(=O)N2C(=O)OC[C@@H]2c2ccccc2)c(C)c1`, the EC50 is over 200 µM and the IC50 was found to be 26.9 µM. `CC1(C)C(=O)N2C(=O)CC(=O)N2C1=O`: the EC50 was over 457 µM and the IC50 was over 457 µM.

With `O=C(O)/C=C/c1ccc(Oc2ccccc2C(=O)O)o1`, the EC50 was over 49 µM and the IC50 is over 49 µM. As for `O=C1NC(c2cccc(Cl)c2)N2C(=O)NC(c3cccc(Cl)c3)N12` (stereo not given), the result was inactive. Consider `O=C1C=CC(=Nc2ccc3c(c2)Cc2ccccc2-3)O1`, for which the EC50 is over 200 µM and the IC50 was 32.4 µM.

For `CN1C(=O)CCC1(O)C1C=CC=CC1` (stereo not given), the EC50 is over 1290 µM and the IC50 is over 1290 µM. For the compound `O=S(=O)(OI(O)CC(F)(F)F)C(F)(F)F`, the EC50 is over 200 µM and the concentration for half-maximal inhibition (IC50) is over 200 µM.

As for `COC(=O)C1C(C(=O)OC)C2C(=O)C3C(C(=O)OC)C(C(=O)OC)C3C(=O)C12` (stereo not given), the EC50 is over 91.2 µM and the IC50 was over 91.2 µM. With `O=C1CC2(CCC(O)(c3ccc(Cl)cc3)C(C(=O)c3ccc(Cl)cc3)C2)C(=O)c2ccccc2N1` (stereo not given), the EC50 is over 200 µM and the IC50 came to 67.6 µM. For the compound `Nc1ccccc1-c1nc2ccncc2[nH]1`, the EC50 was over 851 µM and the IC50 worked out at 302 µM. The matching figures for `N#Cc1cccc(N(C(=O)c2ccccc2)c2ccccc2)n1`: over 200 µM and 112 µM. For the compound `Oc1cccc(C2SCc3nc4ccccc4n32)c1` (stereo not given), the EC50 was over 126 µM and the IC50 was 46.8 µM. `Cc1cc(C=C2C(=O)NC(=S)NC2=O)c(C)n1-c1ccccc1`: the EC50 was over 6.17 µM and the IC50 was over 6.17 µM.

As for `COc1ccc(/C=C2N=C(/C=C/c3ccccc3)OC\2=O)cc1OC`, the EC50 is 11 µM and the IC50 amounted to 97.7 µM. Turning to `O=[N+]([O-])c1ccc[c]([Sb](=[O])([OH])[OH])c1`, the EC50 was over 398 µM and the IC50 was over 200 µM.

With `C1=Nc2ccccc2N=Cc2ccccc2NCCNc2ccccc21`, the EC50 was over 200 µM and the IC50 is over 200 µM.

In the case of `COc1ccc2cc1Oc1ccc(cc1)CC1=NCCc3cc(OC)c(cc31)Oc1c(OC)c(OC)c(OC)c3c1[C@H](C2)N(C)CC3`, the outcome was inactive. On to `Oc1ccccc1/C=N/N1C(=S)N(c2ccccc2)C(=Nc2ccccc2)C1=Nc1ccccc1`, for which the EC50 is over 20 µM and the IC50 stood at 1.29 µM. The corresponding values for `Nc1nc(NNc2cccc(F)c2)cc(=O)[nH]1` are over 200 µM and 16.6 µM.

As for `O=Nc1cc(S(=O)(=O)O)c2cccnc2c1O`, the EC50 is over 200 µM and the IC50 was found to be 52.5 µM. As to `O=C(CN1CCN(c2ccccn2)CC1)N1CCCn2c1nc1ccccc1c2=O`, the EC50 is over 200 µM and the IC50 was over 200 µM.

Regarding `CCOC(=O)c1nc2ccccc2nc1Nc1ccc(C(=O)OC)s1`, the EC50 is over 200 µM and the IC50 was over 200 µM. `CC(c1ccccc1)C(O)S(=O)(=O)O` (stereo not given): the result was inactive. Regarding `O=C(Nc1ccc(C(F)(F)F)cc1[N+](=O)[O-])C(=O)C1NC(=S)NC1=O` (stereo not given), the EC50 was over 95.5 µM and the IC50 is over 95.5 µM.

Regarding `CC12C3CC4C5CC(C(C53)[C@@H]1NCc1ccccc1)C42` (stereo not given in full), the EC50 is over 437 µM and the 50% inhibitory concentration (IC50) amounted to 77.6 µM. Consider `O=C1C=C2C[C@H]3C(O)C[C@]2(O1)[C@H]1CCCN31` (stereo not given in full), for which the EC50 was over 112 µM and the IC50 was over 112 µM. On to `O=C(c1ccccc1Cl)c1c(O)c2ccccc2oc1=O`, for which the EC50 was over 200 µM and the IC50 is over 200 µM. Turning to `OC12CC/C(=N/OCc3ccccc3)CC1c1ccccc12` (stereo not given), the EC50 was over 162 µM and the IC50 stood at 148 µM. Consider `CC(=O)c1sc2c(c1OC(=O)c1cccs1)c(=O)n(-c1ccccc1)c(=S)n2-c1ccccc1`, for which the EC50 was over 200 µM and the IC50 came out at 3.8 µM.

As for `CC(=O)O[C@H]1CC(C)(C)C(=C=C/C(C)=C/C=C/C=C/C=C(C)/C=C2C=C(/C=C/[C@@]34O[C@]3(C)C[C@@H](O)CC4(C)C)C(=O)O/2)[C@](C)(O)C1`, the EC50 is over 151 µM and the IC50 is 6.92 µM. For the compound `CCc1nc2ccc(C(F)(F)F)cc2[nH]c1=O`, the EC50 was over 200 µM and the IC50 worked out at 105 µM. Turning to `COc1ccccc1-n1c(C)nc2ccccc2c1=O`, the EC50 was over 186 µM and the IC50 was over 186 µM.
